Where two headings read alike, the source gives them in different places.
Assay: Kinetic solubility studies in FaSSIF and FeSSIF
Assay type: physicochemical
Conditions: 37° C.; for solubility thermodynamic at 1 day: thermodynamic from solid, read-out: Concentration
Procedure: The solubility of the dimesylate (Pattern B) and mono-HCl salts of Compound A was determined in FaSSIF (pH 6.5) at 37° C. after a slurry time of 5, 20 and 40 minutes. FaSSIF was warmed to 37° C. and added to a vial of ca. 9 mg of the salt to mark t=0. The mixture was kept stirring at 37° C. and a sample drawn with a syringe at t+5, 20 and 40 minutes. The samples were syringe filtered and the filtrate was diluted 2× to ensure no precipitation while waiting for HPLC analysis. The pH of the solution collected at 40 minutes was measured. The slurry was sampled again the following day and the supernatant from syringe filtration was analyzed directly by HPLC without dilution. The same experiment was run with FeSSIF (pH 5.0).

CS(=O)(=O)O.CS(=O)(=O)O.N#Cc1cccc(-c2ccc3ncc(-c4cc(F)cc(F)c4)c(N4CCC(N)CC4)c3c2)c1O [Pattern B, 3-(4-(4-aminopiperidin-1-yl)-3-(3,5-difluorophenyl)quinolin-6-yl)-2-hydroxybenzonitrile dimesylate]
pH of the solution collected at 40 minutes (FaSSIF (pH 6.5)): 6.22 | Concentration (FaSSIF (pH 6.5), 5 min): 13 µg/mL | Concentration (FaSSIF (pH 6.5), 20 min): 15 µg/mL | Concentration (FaSSIF (pH 6.5), 40 min): 13 µg/mL | pH of the solution collected at 40 minutes (FeSSIF (pH 5.0)): 4.94 | Concentration (FeSSIF (pH 5.0), 5 min): 559 µg/mL | Concentration (FeSSIF (pH 5.0), 20 min): 565 µg/mL | Concentration (FeSSIF (pH 5.0), 40 min): 559 µg/mL | solubility thermodynamic at 1 day (FaSSIF (pH 6.5)): 0.008 mg/mL | solubility thermodynamic at 1 day (FeSSIF (pH 5.0)): 0.502 mg/mL
